Measured values published in patent US7037502B2, “Peptide with the amino acid sequence of KVLDGQDP having anti-inflammatory properties” (priority 2001, dated 2006).
Entries after “also recorded” stand apart in the source; their conditions may differ. Marks after values point to notes of the source that are not given here.

Test system: eosinophil infiltration of conjunctiva
Experiment: Allergic conjunctivitis to ragweed in guinea pig: histology, eosinophil count in conjunctiva
Format: in vivo, Hartley female guinea pig
Details: for Anti-inflammatory activity, overall conclusion in words: allergic conjunctivitis model in guinea pig, summary of Example 2; for Statistical evaluation of eosinophil count (Mann-Whitney test), P compared to Dexamethasone / Statistical evaluation of eosinophil count (Mann-Whitney test), P compared to Livostine / Statistical evaluation of eosinophil count (Mann-Whitney test), P compared to No treatment group: eosinophils in three fields of conjunctiva (×400), 12 eyes per group, eye drops
Procedure: The peptides of the present invention were analyzed in experimental model of allergic conjunctivitis to ragweed (giant ragweed; Ambrosia trifida) in guinea pig. Hartley strain of guinea pig was selected according to previous reports of conjunctival anaphylaxis (Calonge M., et al., Acta Ophthalmol 68; 470–476, 1990) and females were chosen based on the sex dimorphism of ocular mucosal immunity with the protective role of male hormones (Saruya S., et al., Act Soc Ophthalmol Jap 72; 833–845, 1968). The conjunctival redness and edema are main signs of seasonal allergic conjunctivitis and eosionphil infiltration is the hallmark of the conjunctival histology in patients with allergic conjunctivitis (Abelson M B., et al., Arch Ophthalmol. 101; 555–556, 1983; Butrus S I., et al., Int. Ophthalmol. Clin. 28; 324–328, 1988)
86 Hartley female guinea pigs, 200–250 g were housed in the animal facilities of the Asan Institute for Life Sciences (Korea), given guinea pig chow and water ad libitum, and cared for in accordance with the Declaration of Helsinki and the National Institute of Health Guide to the Care and Use of the Laboratory Animals (Korea).
On day 15, immunized guinea pigs were divided 14 groups, 6 for each group. 11 anti-inflammatory peptides including new recombinants, dexamethasone eye drop (Maxidex, 0.1% dexamethasone, Alcon) and anti-histamine eye drop (Livostin, levocabastine, Janssen) were used for 13 groups, and no treatment for one group. Normal controls were employed as 6 non-immunized and non-treated guinea pigs. […] All the procedures were followed experimental model of allergic conjunctivitis described by Merayo-Lloves et al (Experimental model of allergic conjunctivitis to ragweed in guinea pig. Curr. Eye Res. 14; 487–494, 1995).
Anti-inflammatory peptides were resolved in sterile saline (100 μmol/40 μl concentration). All peptides and dexamethasone eye solutions were challenged 3 hour prior to the last pollen application on day 15, 10 minutes after pollen application, and 4 times thereafter at the 3 hour interval.
The orbits were excentrated after the animals were killed with CO2 asphyxia, and specimens were prepared for light microscopic examination. Sectioned specimens were stained with hematoxylin-eosin.
Eosinophils in the standardized fields of conjunctival epithelium, the immediate subepithelial, and the stroma were counted in three non-consecutive fields (magnification ×400) for each treatment in each experiment (12 eyes in each group).

Sequence | Anti-inflammatory activity, overall conclusion in words (listed as SEQ ID NO:2) | Statistical evaluation of eosinophil count (Mann-Whitney test), P compared to Dexamethasone | Statistical evaluation of eosinophil count (Mann-Whitney test), P compared to Livostine | Statistical evaluation of eosinophil count (Mann-Whitney test), P compared to No treatment group | Histological signs (eosinophil infiltration), result in words (n=12, P<0.01, SD<10%, Mann-Whitney test, listed as SEQ ID NO:2) | Anti-inflammatory activity, overall conclusion in words
KVLDGQDP [Peptide R2, synthetic peptide of the invention] | excellent anti-inflammatory activity in comparison with other known peptide sequences; also recorded: much higher activity than the steroidal anti-inflammatory dexamethasone | 0.001* | 0.002* | 0.000 | statistically significant difference from other groups; also recorded: the most effective | –
KVLDPVKG [Peptide R1, synthetic peptide of the invention] | – | 0.001 | 0.002 | 0.002 | – | excellent anti-inflammatory activity in comparison with other known peptide sequences
